Tests used:
[1] = test system: CD83, CD86 surface markers of predendritic cells (DC-6); assay: dendritic cell differentiation test: CD83, CD86 surface marker expression; assay type: cell-based, human; details: for CD86 % CD / CD86 Fluorescence: 10 μg/ml; for CD86 % CD: products redissolved in pyrogen-free water, % of dendritic cells; for CD86 Fluorescence: mean fluorescence value
Description: The ability of products of the invention to induce maturation of predendritic cells into dendritic cells was assessed. The following parameters were measured: FITC-Dextran conjugate take-up and expression of CD83, CD86 surface markers.
Mononucleated cells of peripheral blood are isolated from buffy coats of healthy donors. Purified monocytes by adherence selection are resuspended in RPMI-1640 medium containing 10% of foetal calf serum (FCS), GM-CSF and IL-4 (10 ng/ml) at a density of 1×10^6 cells/ml. Cells are divided into Petri Dishes (10×10^6 cells per dish) and cultured for 6 days with a change to fresh medium after 3 days. Cells thus obtained are called predendritic cells (DC-6). Maturation of predendritic cells into mature dendritic cells is achieved by incubating cells with diluted solutions of the products or LPS (positive control) for 3 more days (see product section below). At day 9 (DC-9), cells are harvested and analyzed for different indicators of dendritic cell maturation: assessment of CD83, CD86 surface marker expression as well as of their ability to take up FITC-Dextran conjugate. All these parameters are analyzed by an EPICS-XL-MCL model FACS (Coulter Immunology, Hialeah, […]).
Expression of surface markers is given as % of mean fluorescence of LPS-activated cells (positive control); FITC-Dextran conjugate take-up rate is calculated based on take-up of cells maintained in basic medium and is expressed in %.
Solutions are incubated at 37° C. for 20 minutes, subjected to vigorous stirring during 3 minutes and then diluted to 100 μg/ml in RPMI-1640 culture medium and used in diluted state at concentrations ranging from 10 μg/ml to 0.03 μg/ml. Reference Product: E. coli lipopolysaccharide (LPS, DIFCO, Detroit, Mich., U.S.A.), as a 5 mg/ml stock solution in PBS. An intermediate 100 μg/ml solution is prepared in RPMI 1640 culture medium. Concentrations of dilute solutions being tested range from 1 μg/ml to 0.03 μg/ml.
In another series of experiments, all acyl dipeptide-like compounds were freeze-dried and directly redissolved into pyrogen-free water. Different products as well as LPS control are tested at a concentration of 10 μg/ml. Results are given as % of dendritic cells and mean fluorescence value for dextran phagocytosis or CD86 surface marker expression.

[2] = test system: human peripheral blood mononuclear cells; assay: inhibition of E. coli LPS-induced α TNF production in human peripheral blood mononuclear cells; assay type: cell-based; details: product 10 μg/ml; for 50% inhibition LPS: LPS concentration at which α TNF production is 50% of control; for max. Inhibition LPS: LPS concentration corresponding to maximum inhibition
Description: Mononuclear cells of peripheral blood are recovered from buffy coats of 6 healthy donors. Such buffy coat cells are resuspended and mononuclear cells are isolated by centrifugation on a Ficoll-Paque gradient (Amersham Pharmacia). Purified mononuclear cells are resuspended into RPMI-1640 medium supplemented with 10% FCS, antibiotics, mercaptoethanol and L-glutamine. Cell concentration is adjusted to 2×10^6 viable cells/ml.
Product mediated Inhibition is determined by preincubating those products with mononuclear cells, and adding, 1 hour later, serially diluted solutions of LPS capable of inducing α TFN production. […] E. coli LPS is serially diluted (10-fold dilution) to be in the range of 1 to 0.00001 μg/ml
50 μl of 10 μg/ml dilute product solutions in RPMI 1640 medium are dispensed into a microtiter plate. Each assay (10 μg/ml product concentration+dilute E. coli LPS) is run in triplicates and each microtiter plate includes a negative control comprised of plain medium. LPS-induced α TNF production (without inhibitor) is determined by adding E. coli LPS dilutions to RPMI medium.
100 μl of the cell suspension are added to each well containing dilutions of either product or control. Cells are incubated with the products for 1 hour in an incubator at 37° C., under 5% CO2 and a moisture saturated atmosphere.
At the end of the pre-incubation period, 50 μl of serially diluted solutions of E. coli LPS are added. Incubation of mononuclear cells with the product and LPS is extended for 18 hours. At the end of the cell activation period, the microtiter plates are centrifuged, and the supernatants are pooled and frozen at −80° C. as aliquots until time of ELISA assay.
Concentration of αTNF secreted by mononuclear cells is determined by chemiluminescent ELISA (QuantiGlo #QTAOO R&D kit). 4-fold dilutions of supernatant fluid are dispensed into each well of the microtiter plate to which anti-human αTNF antibodies are bound. The microtiter plate is incubated for 4 hours at room temperature. After washing, peroxidase-conjugated anti-human αTNF antibody is added. Following a 2 hour incubation period and a thorough washing, a chemiluminescent substrate is added and chemilunescence is read after 20 minutes. αTNF content in the supernatant fluid is determined with respect to a standard curve covering the 7000 to 0.7 pg/ml range.
Inhibition is characterized by the E. coli LPS concentration which elicits 50% production of α TNF during co-incubation in comparison to a control including only RPMI. This concentration increases as product inhibition activity becomes stronger. Knowing inhibition values of α TNF production, this concentration is given by calculating 100-(αTNF production induced by product and LPS)/(αTNF production induced by LPS alone)*100. From these inhibition data, concentration is determined by linear regression along the line segment which joins 2 LPS dilutions giving approx. 50% inhibition.
Product ability to inhibit α TNF production in mononuclear cells in response to LPS is further characterized by maximum inhibition. […] Results are calculated from a representative experience using all products.

SMILES | CD86 % CD [1] [%] | CD86 Fluorescence [1] | concentration inducing an increase in expression of CD83 and CD86 surface markers ([1]; FIGS. 75 & 76) [µg/mL] | max. Inhibition [2] [%] | 50% inhibition LPS [2] [µg/mL] | max. Inhibition LPS [2] [µg/mL]
CCCCCCCCCCCC(=O)O[C@H](CCCCCCCCCCC)CC(=O)NC(CCOP(=O)(O)O)C(=O)NCCC[C@H](COC(=O)CCCCCN)NC(=O)C[C@H](O)CCCCCCCCCCC (mixture of isomers) [OM-197-MP-AC (R/S, R), (3RS,9R)-3-[(R)-3-dodecanoyloxytetradecanoylamino]-4oxo-5-aza-9-[(R)-3-hydroxytetradecanoylamino]-decan-10-ol 1-dihydrogen-phosphate(6-aminohexanoate)] | 80.0 | 6.0 | 0.1 | 100 | >1 | 0.00002
CCCCCCCCCCCC(=O)O[C@H](CCCCCCCCCCC)CC(=O)N[C@H](CC(=O)NCCCN)C(=O)NCCC[C@H](CO)NC(=O)C[C@H](O)CCCCCCCCCCC [OM-197-AP, N—[(R)-3-dodecanoyloxytetradecanoyl]-D-aspartic acid, α-N-{(4R)-5-hydroxy-4-[(R)-3-hydroxy-tetradecanoylamino]pentyl}-amide β-N-(3-aminopropyl)amide] | 62.0 | 4.8 |  | 100 | >1 | 0.016
CCCCCCCCCCCC(=O)O[C@H](CCCCCCCCCCC)CC(=O)N[C@H](CC(=O)N[C@@H](CC(=O)O)C(=O)O)C(=O)NCCC[C@H](CO)NC(=O)C[C@H](O)CCCCCCCCCCC [OM-197-Asp, N—[(R)-3-dodecanoyloxytetradecanoyl]-D-aspartic acid, α-N-{(4R)-5-hydroxy-4-[(R)-3-hydroxytetradecanoylamino]-pentyl}Amide β-N-[(1S)-1,2-Dicarboxyethyl]Amide] | 29.0 | 2.6 |  | 100 | >1 | 0.00036
CCCCCCCCCCCC(=O)O[C@H](CCCCCCCCCCC)CC(=O)N[C@H](CC(=O)N[C@@H](CC(=O)O)C(=O)O)C(=O)NCCC[C@H](COC(=O)CCCCCN)NC(=O)C[C@H](O)CCCCCCCCCCC [OM-197-Asp-AC, N—[(R)-3-dodecanoyloxytetradecanoyl]-D-aspartic acid, α-N-{(4R)-5-(6-aminohexanoyloxy)-4-[(R)-3-hydroxytetradecanoyl-amino]-pentyl}amide β-N-[(1S)-1,2-dicarboxyethyl]Amide] | 26.7 | 2.4 |  | 100 | 0.29 | 0.0058
CCCCCCCCCCCC(=O)O[C@H](CCCCCCCCCCC)CC(=O)NC(CCOP(=O)(O)O)C(=O)NCCCC(COC(=O)CCCCCO)NC(=O)C[C@H](O)CCCCCCCCCCC (stereo partly drawn) [OM-197-FV8, 3-[(R)-3-dodecanoyloxytetradecanoylamino]-4-oxo-5-aza-9-[(R)-3-hydroxytetradecanoylamino]-decan-1,10-diol 1-dihydrogenphosphate 10-(6-hydroxyhexanoate)] |  |  |  | 100 | >1 | 0.0033
CCCCCCCCCCCC(=O)O[C@H](CCCCCCCCCCC)CC(=O)N[C@H](CC(=O)O)C(=O)NCCC[C@H](COC(=O)CCCCCNC(=O)CCC(=O)O)NC(=O)C[C@H](O)CCCCCCCCCCC [OM-197-MC-AC-Succ, N—[(R)-3-dodecanoyloxytetradecanoyl]-D-aspartic acid, α-N-{(4R)-5-(6-succinylamidohexanoxyloxy)-4[(R)-3-hydroxy-tetradecanoylamino]pentyl}amide] |  |  |  | 100 | >1 | 0.044
CCCCCCCCCCCC(=O)O[C@H](CCCCCCCCCCC)CC(=O)N[C@H](CC(=O)O)C(=O)NCCC[C@H](COC(=O)CCCCCO)NC(=O)C[C@H](O)CCCCCCCCCCC [OM-197-MC-FV7, N—[(R)-3-dodecanoyloxytetradecanoylamino]-D-aspartic acid, α-N-{(4R)-5-hydroxy-4-[(R)-3-hydroxytetradecanoylamino]pentyl}amide 5-O-(6-hydroxyhexanoate)] |  |  |  | 100 | >1 | 0.00035
CCCCCCCCCCCC(=O)O[C@H](CCCCCCCCCCC)CC(=O)N[C@H](CC(=O)O)C(=O)NCCC[C@H](COP(=O)(O)O)NC(=O)C[C@H](O)CCCCCCCCCCC [OM-197-MC-MP, N—[(R)-3-dodecanoyloxytetradecanoyl]-D-aspartic acid, α-N-{(4R)-5-dihydroxyphosphoryloxy-4-[(R)-3-hydroxytetradecanoyl-amino]pentyl}amide] |  |  |  | 100 | 0.19 | 0.001
CCCCCCCCCCCC(=O)O[C@H](CCCCCCCCCCC)CC(=O)N[C@@H](CCOP(=O)(O)O)C(=O)NCCC[C@H](COC(=O)CCCCCO)NC(=O)C[C@H](O)CCCCCCCCCCC [OM-197-MP-AC (S, R), (3S,9R)-3-[(R)-3-dodecanoyloxytetradecanoylamino]-4-oxo-5-aza-9-[(R)-3-hydroxytetradecanoylamino]-1,10-diol 1-dihydrogenphosphate 10-(6-hydroxyhexanoate)] |  |  |  | 100 | >1 | 0.00002
CCCCCCCCCCC[C@@H](O)CC(=O)N[C@H](CCCNC(=O)[C@@H](CC(=O)O)NC(=O)C(CCCCCC)OC(=O)CCCCCCCCC)COC(=O)CCCCCN (stereo partly drawn) [OM-197-N′(C10-20C8)-MC-AC, N-(2-decanoyloxyoctanoyl)-D-aspartic acid, α-N-{(4R)-5-(6-aminohexanoyloxy)-4-[(R)-3-hydroxytetradecanoylamino]-pentyl}amide] |  |  |  | 85 | 0.0009 | <0.00001
CCCCCCCCCCC[C@@H](O)CC(=O)N[C@H](CCCNC(=O)[C@@H](CC(=O)O)NC(C)=O)COC(=O)CCCCCN [OM-197-N′C2-MC-AC, N-acetyl-D-aspartic acid, α-N-{(4R)-5-(6-aminohexanoyloxy)-4-[(R)-3-hydroxytetradecanoylamino]-pentyl}amide] |  |  |  | 100 | 0.0003 | 0.00001
